{"source": "patent US12329738B2", "about": "“Urolithin A and a composition containing same for external use in inflammations of various etiologies” (WARSZAWSKI UNIWERSYTET MEDYCZNY, priority 2018, dated 2025)", "key": {"tyrosinase": {"biological_target": "T1, tyrosinase (Mus musculus, UniProt P11344)", "T1 sequence (P11344 19-533)": "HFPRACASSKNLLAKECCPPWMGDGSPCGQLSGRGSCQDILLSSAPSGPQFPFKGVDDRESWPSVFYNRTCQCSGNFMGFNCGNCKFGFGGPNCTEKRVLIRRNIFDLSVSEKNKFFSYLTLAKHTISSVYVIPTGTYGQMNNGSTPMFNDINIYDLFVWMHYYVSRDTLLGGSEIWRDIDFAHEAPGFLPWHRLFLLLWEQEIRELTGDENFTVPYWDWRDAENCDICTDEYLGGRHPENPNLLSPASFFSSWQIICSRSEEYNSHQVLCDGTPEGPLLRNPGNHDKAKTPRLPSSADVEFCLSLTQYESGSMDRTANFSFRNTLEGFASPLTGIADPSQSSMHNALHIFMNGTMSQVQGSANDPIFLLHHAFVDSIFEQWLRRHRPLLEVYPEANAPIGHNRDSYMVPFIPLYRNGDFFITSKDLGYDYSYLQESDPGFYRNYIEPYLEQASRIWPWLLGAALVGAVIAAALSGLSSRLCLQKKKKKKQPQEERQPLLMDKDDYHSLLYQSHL", "settings": "B16 melanoma cells; cited from earlier work"}, "[1]": {"tested_on": "neutrophils and macrophages", "settings": "cited from earlier work"}, "ERK1/2": {"tested_on": "ERK1/2", "test": "ERK1/2 phosphorylation in THP-1 derived macrophages (Western blotting)", "assay_type": "cell-based, human", "settings": "40 μM; LPS 10 ng/mL, 35 min; FIG. 15", "protocol": "Monocytes of the THP-1 line were cultured in RPMI 1640 medium supplemented with 10% FBS and 2 mM glutamine. For transformation of monocytes into macrophages, the cells were treated with 12.5 ng/mL PMA (phorbol 12-myristate 13-acetate) for 48 hours, then washed and incubated for 24 hours in a culture medium without PMA. After this time, urolithin A, urolithin B, iso-urolithin A and the corresponding glucuronides (GUA, GUB and GiUA) were added to the cells at a concentration of 40 μM. After 1 hour of incubation with the compounds, the cells were stimulated with LPS from Escherichia coli (10 ng/mL). To assess the level of TNF-alpha production, the cells were incubated for 6 hours, to assess the expression of mRNA for TNF-alpha, the cells were incubated for 24 hours, to assess the effect on ERK1/2 phosphorylation, the cells were incubated for 35 minutes. […] The obtained results of experiments on in vitro models were analyzed using the Statistica 13 program (StatSoft, Inc., Tulsa, OK, USA) and presented as mean values±SEM. Statistical significance was set at P≤0.05. The results with established normal distribution in the D'Agostin and Pearson test were prepared using analysis of variance (ANOVA). Parametric post-hoc analysis was performed using Dunnett's test."}, "[2]": {"test": "Thermal, acid and UV stability of urolithin A (UPLC-DAD-MS)", "assay_type": "physicochemical", "settings": "80 μM in deionized water or 1M HCl, 24 hours at 37° C. or 12 hours at 80° C.; UVA 365 nm 12 hours", "protocol": "Urolithin A at 80 μM was suspended in deionized water or 1M HCl and incubated for 24 hours at 37° C. or for 12 hours at 80° C. The urolithin A solution was also irradiated for 12 hours with a UV lamp emitting UVA radiation with the maximum at 365 nm. The concentration of urolithin A after incubation was determined using the UPLC-DAD-MS method according to Piwowarski et al. 2016."}, "hyaluronidase": {"tested_on": "hyaluronidase", "test": "Hyaluronidase activity, pharmacopoeial method (USP)", "assay_type": "biochemical", "settings": "experiments by the inventors", "text": "US application US2010323985A discloses the use of a compound from the group of urolithins, urolithin B, as a component of a pharmaceutical or cosmetic preparation for topical and/or parenteral use. […] Urolithin B has been indicated as an example of one of hyaluronic acid degradation inhibitors, alone or in a mixture. With respect to the above, the inventors conducted experiments according to the pharmacopoeial method (USP), observing as a result no effect of urolithin A on hyaluronidase activity. […] Also, in the case of psoriasis, research is currently underway on effectiveness of hyaluronidase subcutaneous injections ([…] preparation; https://clinicaltrials.gov/ct2/show/NCT01987609)."}, "[3]": {"tested_on": "carrageenan-induced paw edema in mice", "settings": "oral administration one hour after induction of edema, next 24 hours; cited from earlier work"}, "[4]": {"test": "Local application of urolithin A ointment on skin by volunteers", "assay_type": "in vivo, human", "settings": "1.0% urolithin A ointment in white petrolatum, 20 mg per 4 cm^2 once a day for two weeks", "quoted_text": "The therapeutic composition was an ointment prepared on the base of white petrolatum with 1.0% urolithin A added. The control ointment was white petrolatum without the addition of urolithin A. 1.0% urolithin A composition and the carrier—white petrolatum was applied on washed and dried skin by volunteers themselves, at a dose of 20 mg ointment per surface 4 cm^2 daily, once a day for two weeks.\nThe following parameters were taken into account in the study: feeling of discomfort after application of the composition on the skin, ease of application, discoloration of the skin at the site of application, redness of the skin at the site of application of the composition, degree of drying of the treated area of the skin, sensation of pinching, burning, itching and other types of discomfort. Participants in the study determined their level of satisfaction/dissatisfaction on a 10-point scale, 0 being dissatisfaction and 10 being satisfaction with the pharmaceutical composition of the present invention."}, "mRNA for TNF-alpha": {"tested_on": "mRNA for TNF-alpha", "test": "TNF-alpha mRNA expression in THP-1 derived macrophages (real time PCR)", "assay_type": "cell-based, human", "settings": "40 μM; LPS stimulation; FIG. 14", "protocol": "Monocytes of the THP-1 line were cultured in RPMI 1640 medium supplemented with 10% FBS and 2 mM glutamine. For transformation of monocytes into macrophages, the cells were treated with 12.5 ng/mL PMA (phorbol 12-myristate 13-acetate) for 48 hours, then washed and incubated for 24 hours in a culture medium without PMA. After this time, urolithin A, urolithin B, iso-urolithin A and the corresponding glucuronides (GUA, GUB and GiUA) were added to the cells at a concentration of 40 μM. After 1 hour of incubation with the compounds, the cells were stimulated with LPS from Escherichia coli (10 ng/mL).\nTo assess the level of TNF-alpha production, the cells were incubated for 6 hours, to assess the expression of mRNA for TNF-alpha, the cells were incubated for 24 hours, to assess the effect on ERK1/2 phosphorylation, the cells were incubated for 35 minutes.\nThe level of TNF-alpha in the culture medium was determined using the immunochemical ELISA method (BD biosciences). Evaluation of the expression of mRNA for TNF-alpha was performed using real time PCR. After 24 hours of incubation, RNA was isolated using NucleoSpin RNA Clean-up (Macherey-Nagel). The amount and quality of isolated RNA was determined using 2100 Bioanalyzer (Agilent Technologies). The expression level of mRNA for TNF-α was determined using Brilliant II SYBR Green QPCR Kit and Aria Mx Real-Time PCR thermocycler (Agilent Technologies). The following were used as primers for TNF-alpha: forward: 5′-[…]-3′, reverse: 5′-[…]-3′. Beta-actin (ACTB) was used as the housekeeping gene; primer forward: 5′-[…]-3′, reverse: 5′-[…]-3′).\nThe obtained results of experiments on in vitro models were analyzed using the Statistica 13 program (StatSoft, Inc., Tulsa, OK, USA) and presented as mean values±SEM. Statistical significance was set at P≤0.05. The results with established normal distribution in the D'Agostin and Pearson test were prepared using analysis of variance (ANOVA). Parametric post-hoc analysis was performed using Dunnett's test."}, "skin cells": {"tested_on": "skin cells", "settings": "in vitro; cited from earlier work"}}}
{"smiles": "O=c1oc2cc(O)ccc2c2ccc(O)cc12", "note": "[urolithin A]", "values": [{"measurement": "Tyrosinase activity (depigmentation)", "setting": "tyrosinase", "result": "suppressing tyrosinase activity"}, {"measurement": "Cytotoxic or antiproliferative activity", "setting": "[1]", "result": "there was not observed either cytotoxic or antiproliferative activity"}, {"measurement": "ERK1/2 kinase phosphorylation in THP-1 derived macrophages", "setting": "ERK1/2", "result": "stimulation of ERK1/2 kinase phosphorylation"}, {"measurement": "Stability (degradation / change in chemical structure)", "setting": "[2]", "result": "stable"}, {"measurement": "Effect on hyaluronidase activity", "setting": "hyaluronidase", "result": "no effect"}, {"measurement": "Carrageenan-induced paw edema size", "setting": "[3]", "result": "significantly reduced its size"}, {"measurement": "Adverse effects after skin application", "setting": "[4]", "result": "did not cause any adverse effects"}, {"measurement": "TNF-alpha mRNA expression in THP-1 derived macrophages", "setting": "mRNA for TNF-alpha", "result": "inhibitory effect on TNF-alpha mRNA expression"}, {"measurement": "Melanin production", "setting": "skin cells", "result": "reduced production of melanin"}]}
